Source: the supplement of paper PMC6315032

Experiments:
Experiment in all cases: apparent dissociation constant (pKDapp, Kinobeads competition, Cheng-Prusoff corrected) (-log10 M); higher = tighter binding
[1] = molecular target: PLK1 (UniProt P53350); details: affinity matrix / lysate: Kinobeads, mixed HEK293/K-562/placenta lysate
[2] = molecular target: CSNK2A1 (UniProt P68400)
[3] = molecular target: MERTK (UniProt Q12866); details: affinity matrix / lysate: Kinobeads, mixed HEK293/K-562/placenta lysate
[4] = molecular target: MAST2 (UniProt Q6P0Q8); details: affinity matrix / lysate: Kinobeads, mixed HEK293/K-562/placenta lysate
[5] = molecular target: DSTYK (UniProt Q6XUX3); details: affinity matrix / lysate: Kinobeads, mixed HEK293/K-562/placenta lysate
[6] = molecular target: LYN (UniProt P07948); details: affinity matrix / lysate: Kinobeads, mixed HEK293/K-562/placenta lysate
[7] = molecular target: PRKCI (UniProt P41743); details: affinity matrix / lysate: Kinobeads, mixed HEK293/K-562/placenta lysate
[8] = molecular target: PRKG1 (UniProt Q13976); details: affinity matrix / lysate: Kinobeads, mixed HEK293/K-562/placenta lysate
[9] = molecular target: PRKDC (UniProt P78527); details: affinity matrix / lysate: Lipid Kinobeads, mixed HeLa/Jurkat/K-562 lysate
[10] = molecular target: EPHA3 (UniProt P29320); details: affinity matrix / lysate: Kinobeads, mixed HEK293/K-562/placenta lysate
[11] = molecular target: RPS6KA2 (UniProt Q15349); details: affinity matrix / lysate: Kinobeads, mixed HEK293/K-562/placenta lysate
[12] = molecular target: MAP3K1 (UniProt Q13233); details: affinity matrix / lysate: Kinobeads, mixed HEK293/K-562/placenta lysate
[13] = molecular target: MAPKAPK3 (UniProt Q16644); details: affinity matrix / lysate: Kinobeads, mixed HEK293/K-562/placenta lysate
[14] = molecular target: MAP2K2 (UniProt P36507); details: affinity matrix / lysate: Kinobeads, mixed HEK293/K-562/placenta lysate
[15] = molecular target: STK10 (UniProt O94804); details: affinity matrix / lysate: Kinobeads, mixed HEK293/K-562/placenta lysate
[16] = molecular target: MAPK14 (UniProt Q16539); details: affinity matrix / lysate: Kinobeads, mixed HEK293/K-562/placenta lysate
[17] = molecular target: MAPKAPK5 (UniProt Q8IW41); details: affinity matrix / lysate: Kinobeads, mixed HEK293/K-562/placenta lysate
[18] = molecular target: MST1R (UniProt Q04912); details: affinity matrix / lysate: Kinobeads, mixed HEK293/K-562/placenta lysate
[19] = molecular target: FRK (UniProt P42685); details: affinity matrix / lysate: Kinobeads, mixed HEK293/K-562/placenta lysate
[20] = molecular target: PI4KA (UniProt P42356)
[21] = molecular target: IKBKB (UniProt O14920); details: affinity matrix / lysate: Kinobeads, mixed HEK293/K-562/placenta lysate
[22] = molecular target: DYRK1A (UniProt Q13627); details: affinity matrix / lysate: Kinobeads, mixed HEK293/K-562/placenta lysate
[23] = molecular target: PI4KB (UniProt Q9UBF8); details: affinity matrix / lysate: Lipid Kinobeads, mixed HeLa/Jurkat/K-562 lysate
[24] = molecular target: RPS6KA3 (UniProt P51812); details: affinity matrix / lysate: Kinobeads, mixed HEK293/K-562/placenta lysate
[25] = molecular target: PRKCZ (UniProt Q05513); details: affinity matrix / lysate: Kinobeads, mixed HEK293/K-562/placenta lysate
[26] = molecular target: JAK2 (UniProt O60674); details: affinity matrix / lysate: Kinobeads, mixed HEK293/K-562/placenta lysate
[27] = molecular target: IGF1R (UniProt P08069); details: affinity matrix / lysate: Kinobeads, mixed HEK293/K-562/placenta lysate
[28] = molecular target: MAPK11 (UniProt Q15759); details: affinity matrix / lysate: Kinobeads, mixed HEK293/K-562/placenta lysate
[29] = molecular target: MKNK2 (UniProt Q9HBH9); details: affinity matrix / lysate: Kinobeads, mixed HEK293/K-562/placenta lysate
[30] = molecular target: LATS2 (UniProt Q9NRM7); details: affinity matrix / lysate: Kinobeads, mixed HEK293/K-562/placenta lysate
[31] = molecular target: SGK3 (UniProt Q96BR1); details: affinity matrix / lysate: Kinobeads, mixed HEK293/K-562/placenta lysate
[32] = molecular target: OXSR1 (UniProt O95747); details: affinity matrix / lysate: Kinobeads, mixed HEK293/K-562/placenta lysate
[33] = molecular target: RPS6KA5 (UniProt O75582); details: affinity matrix / lysate: Kinobeads, mixed HEK293/K-562/placenta lysate
[34] = affinity matrix / lysate: Kinobeads, mixed HEK293/K-562/placenta lysate
[35] = affinity matrix / lysate: Lipid Kinobeads, mixed HeLa/Jurkat/K-562 lysate

Sequence of CSNK2A1 (P68400 whole entry, looked up): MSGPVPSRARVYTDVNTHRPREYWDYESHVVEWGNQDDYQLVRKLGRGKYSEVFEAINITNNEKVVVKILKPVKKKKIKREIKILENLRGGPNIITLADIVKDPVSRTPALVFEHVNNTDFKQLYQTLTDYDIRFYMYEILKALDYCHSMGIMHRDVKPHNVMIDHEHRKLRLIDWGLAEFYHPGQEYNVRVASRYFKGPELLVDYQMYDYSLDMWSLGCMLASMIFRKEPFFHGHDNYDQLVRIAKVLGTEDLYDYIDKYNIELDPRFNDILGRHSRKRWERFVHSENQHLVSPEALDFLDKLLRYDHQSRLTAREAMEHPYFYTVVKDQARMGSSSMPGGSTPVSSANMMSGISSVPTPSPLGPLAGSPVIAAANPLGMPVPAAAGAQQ
Sequence of PI4KA (P42356 whole entry, looked up): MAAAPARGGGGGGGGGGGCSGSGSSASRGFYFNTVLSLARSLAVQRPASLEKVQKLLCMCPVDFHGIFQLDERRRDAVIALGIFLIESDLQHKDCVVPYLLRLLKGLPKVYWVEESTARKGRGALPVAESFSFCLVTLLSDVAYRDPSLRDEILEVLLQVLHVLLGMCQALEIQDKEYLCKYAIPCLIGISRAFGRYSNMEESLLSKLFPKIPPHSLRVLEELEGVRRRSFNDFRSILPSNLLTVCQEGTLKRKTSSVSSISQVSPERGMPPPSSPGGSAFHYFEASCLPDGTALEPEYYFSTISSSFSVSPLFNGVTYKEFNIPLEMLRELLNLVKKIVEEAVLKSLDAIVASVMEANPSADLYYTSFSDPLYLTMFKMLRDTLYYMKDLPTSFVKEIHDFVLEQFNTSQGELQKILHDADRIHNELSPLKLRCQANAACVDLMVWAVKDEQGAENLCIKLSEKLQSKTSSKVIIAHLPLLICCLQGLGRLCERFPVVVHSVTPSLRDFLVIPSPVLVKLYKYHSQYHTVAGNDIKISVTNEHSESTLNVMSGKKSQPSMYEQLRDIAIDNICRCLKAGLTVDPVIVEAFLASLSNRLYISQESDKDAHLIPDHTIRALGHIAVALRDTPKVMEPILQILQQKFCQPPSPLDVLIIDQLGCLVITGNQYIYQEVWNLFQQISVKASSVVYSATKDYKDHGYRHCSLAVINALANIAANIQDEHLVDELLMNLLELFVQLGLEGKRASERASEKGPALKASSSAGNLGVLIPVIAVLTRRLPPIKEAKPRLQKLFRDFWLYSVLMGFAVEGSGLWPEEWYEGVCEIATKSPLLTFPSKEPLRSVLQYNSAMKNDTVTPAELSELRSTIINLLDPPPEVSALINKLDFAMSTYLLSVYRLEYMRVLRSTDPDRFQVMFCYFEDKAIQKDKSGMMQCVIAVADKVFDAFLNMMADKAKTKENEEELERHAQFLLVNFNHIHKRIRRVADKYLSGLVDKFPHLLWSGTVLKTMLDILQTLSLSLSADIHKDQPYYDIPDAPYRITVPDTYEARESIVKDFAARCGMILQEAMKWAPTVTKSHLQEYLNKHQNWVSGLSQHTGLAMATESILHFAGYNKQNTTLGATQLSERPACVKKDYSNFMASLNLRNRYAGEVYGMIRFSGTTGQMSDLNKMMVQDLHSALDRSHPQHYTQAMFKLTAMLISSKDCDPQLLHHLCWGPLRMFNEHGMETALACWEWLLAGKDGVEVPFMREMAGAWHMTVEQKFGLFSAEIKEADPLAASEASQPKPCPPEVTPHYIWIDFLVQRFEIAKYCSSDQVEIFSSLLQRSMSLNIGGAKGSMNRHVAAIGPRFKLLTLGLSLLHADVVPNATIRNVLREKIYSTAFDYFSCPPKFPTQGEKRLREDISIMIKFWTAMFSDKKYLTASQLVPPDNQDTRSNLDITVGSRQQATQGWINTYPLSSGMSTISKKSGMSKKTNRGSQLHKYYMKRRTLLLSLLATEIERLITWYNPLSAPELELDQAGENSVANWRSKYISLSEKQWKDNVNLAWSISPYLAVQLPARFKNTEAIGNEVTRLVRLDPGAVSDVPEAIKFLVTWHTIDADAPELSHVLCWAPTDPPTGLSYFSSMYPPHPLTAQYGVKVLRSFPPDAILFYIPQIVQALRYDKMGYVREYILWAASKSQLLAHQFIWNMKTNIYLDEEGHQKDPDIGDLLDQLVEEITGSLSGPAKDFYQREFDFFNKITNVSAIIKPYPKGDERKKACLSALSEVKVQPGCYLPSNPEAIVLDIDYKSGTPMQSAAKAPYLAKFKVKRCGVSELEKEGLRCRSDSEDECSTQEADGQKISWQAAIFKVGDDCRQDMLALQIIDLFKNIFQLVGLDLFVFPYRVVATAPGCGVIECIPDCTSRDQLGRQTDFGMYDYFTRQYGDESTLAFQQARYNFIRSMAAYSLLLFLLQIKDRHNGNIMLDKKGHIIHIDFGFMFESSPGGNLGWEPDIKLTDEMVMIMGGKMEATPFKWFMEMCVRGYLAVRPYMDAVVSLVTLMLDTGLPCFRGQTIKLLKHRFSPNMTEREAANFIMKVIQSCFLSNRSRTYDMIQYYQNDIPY
Sequence of IGF1R (P08069 whole entry, looked up): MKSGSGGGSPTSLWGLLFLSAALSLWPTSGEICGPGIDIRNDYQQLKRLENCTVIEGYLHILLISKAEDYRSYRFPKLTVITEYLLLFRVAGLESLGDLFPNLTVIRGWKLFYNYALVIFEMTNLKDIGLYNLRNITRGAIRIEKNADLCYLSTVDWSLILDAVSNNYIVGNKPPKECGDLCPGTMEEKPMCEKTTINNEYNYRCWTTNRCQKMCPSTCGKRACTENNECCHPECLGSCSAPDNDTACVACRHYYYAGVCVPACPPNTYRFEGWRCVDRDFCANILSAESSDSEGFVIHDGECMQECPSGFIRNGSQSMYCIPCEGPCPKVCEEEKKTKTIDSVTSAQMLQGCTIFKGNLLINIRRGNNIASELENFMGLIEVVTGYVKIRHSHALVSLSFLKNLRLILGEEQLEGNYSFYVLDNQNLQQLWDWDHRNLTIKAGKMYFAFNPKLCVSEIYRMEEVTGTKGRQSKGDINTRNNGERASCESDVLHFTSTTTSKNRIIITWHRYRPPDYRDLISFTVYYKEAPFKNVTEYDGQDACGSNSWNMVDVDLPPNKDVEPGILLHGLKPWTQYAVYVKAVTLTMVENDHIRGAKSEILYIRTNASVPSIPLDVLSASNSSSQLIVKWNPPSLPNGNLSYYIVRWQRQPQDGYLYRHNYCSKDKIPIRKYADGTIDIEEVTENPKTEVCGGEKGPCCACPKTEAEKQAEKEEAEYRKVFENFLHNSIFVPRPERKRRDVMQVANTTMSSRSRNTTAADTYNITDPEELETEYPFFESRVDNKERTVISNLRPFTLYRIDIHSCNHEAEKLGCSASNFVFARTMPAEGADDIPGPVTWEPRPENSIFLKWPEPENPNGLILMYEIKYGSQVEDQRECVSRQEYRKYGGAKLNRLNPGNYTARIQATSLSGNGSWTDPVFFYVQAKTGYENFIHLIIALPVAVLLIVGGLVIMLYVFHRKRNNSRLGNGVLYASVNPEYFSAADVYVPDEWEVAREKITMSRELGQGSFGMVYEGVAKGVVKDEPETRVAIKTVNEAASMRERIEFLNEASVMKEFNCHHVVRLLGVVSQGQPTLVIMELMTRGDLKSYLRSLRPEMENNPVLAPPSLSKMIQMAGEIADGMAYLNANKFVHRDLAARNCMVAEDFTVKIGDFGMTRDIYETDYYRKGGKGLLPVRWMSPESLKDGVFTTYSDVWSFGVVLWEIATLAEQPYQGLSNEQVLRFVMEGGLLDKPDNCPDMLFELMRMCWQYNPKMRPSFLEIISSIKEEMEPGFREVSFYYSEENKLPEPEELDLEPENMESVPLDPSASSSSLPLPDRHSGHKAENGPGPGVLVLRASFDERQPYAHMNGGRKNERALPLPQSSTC
Sequence of DSTYK (Q6XUX3 whole entry): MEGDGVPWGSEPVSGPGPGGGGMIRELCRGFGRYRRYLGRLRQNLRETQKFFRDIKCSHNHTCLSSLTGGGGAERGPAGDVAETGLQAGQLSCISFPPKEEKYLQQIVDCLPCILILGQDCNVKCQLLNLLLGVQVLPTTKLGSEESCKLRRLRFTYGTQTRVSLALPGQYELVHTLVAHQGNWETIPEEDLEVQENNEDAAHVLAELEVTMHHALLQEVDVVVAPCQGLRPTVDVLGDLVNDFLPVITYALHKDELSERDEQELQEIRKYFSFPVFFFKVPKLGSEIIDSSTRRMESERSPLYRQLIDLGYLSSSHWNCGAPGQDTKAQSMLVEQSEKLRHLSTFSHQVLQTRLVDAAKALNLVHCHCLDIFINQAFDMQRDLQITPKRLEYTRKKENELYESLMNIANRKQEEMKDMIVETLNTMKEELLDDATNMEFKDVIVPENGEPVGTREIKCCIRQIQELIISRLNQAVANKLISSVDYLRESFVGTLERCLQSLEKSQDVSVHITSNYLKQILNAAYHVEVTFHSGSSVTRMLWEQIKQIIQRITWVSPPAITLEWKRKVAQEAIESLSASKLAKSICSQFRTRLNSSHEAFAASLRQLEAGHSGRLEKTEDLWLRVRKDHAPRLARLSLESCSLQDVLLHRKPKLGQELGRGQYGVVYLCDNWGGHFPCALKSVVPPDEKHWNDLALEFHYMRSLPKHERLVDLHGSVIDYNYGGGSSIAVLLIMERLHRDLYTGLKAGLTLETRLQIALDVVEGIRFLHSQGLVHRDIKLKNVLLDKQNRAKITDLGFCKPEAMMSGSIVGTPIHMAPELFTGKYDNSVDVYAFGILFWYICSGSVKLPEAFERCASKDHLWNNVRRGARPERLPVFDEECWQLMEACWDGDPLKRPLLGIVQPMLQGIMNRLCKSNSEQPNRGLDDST

Row | SMILES | apparent dissociation constant (-log10 M) [1] | apparent dissociation constant (-log10 M) [2, 34] | apparent dissociation constant (-log10 M) [2, 35] | apparent dissociation constant (-log10 M) [3] | apparent dissociation constant (-log10 M) [4] | apparent dissociation constant (-log10 M) [5] | apparent dissociation constant (-log10 M) [6] | apparent dissociation constant (-log10 M) [7] | apparent dissociation constant (-log10 M) [8] | apparent dissociation constant (-log10 M) [9] | apparent dissociation constant (-log10 M) [10] | apparent dissociation constant (-log10 M) [11] | apparent dissociation constant (-log10 M) [12] | apparent dissociation constant (-log10 M) [13] | apparent dissociation constant (-log10 M) [14] | apparent dissociation constant (-log10 M) [15] | apparent dissociation constant (-log10 M) [16] | apparent dissociation constant (-log10 M) [17] | apparent dissociation constant (-log10 M) [18] | apparent dissociation constant (-log10 M) [19] | apparent dissociation constant (-log10 M) [20, 34] | apparent dissociation constant (-log10 M) [20, 35] | apparent dissociation constant (-log10 M) [21] | apparent dissociation constant (-log10 M) [22] | apparent dissociation constant (-log10 M) [23] | apparent dissociation constant (-log10 M) [24] | apparent dissociation constant (-log10 M) [25] | apparent dissociation constant (-log10 M) [26] | apparent dissociation constant (-log10 M) [27] | apparent dissociation constant (-log10 M) [28] | apparent dissociation constant (-log10 M) [29] | apparent dissociation constant (-log10 M) [30] | apparent dissociation constant (-log10 M) [31] | apparent dissociation constant (-log10 M) [32] | apparent dissociation constant (-log10 M) [33]
1 | COc1ccc(-c2ccc3c(N4CCOC[C@@H]4C)nc(N4CCOC[C@@H]4C)nc3n2)cc1CO [AZD8055] | < 6 | < 6 | < 6 | < 6 | < 6 | < 6 | < 6 | < 6 | < 6 | 6.18 | < 6 | < 6 | < 6 | < 6 | < 6 | < 6 | < 6 | < 6 | < 6 | < 6 | < 6 | < 6 | < 6 | < 6 | < 6 | < 6 | < 6 | < 6 | < 6 | < 6 | < 6 | < 6 | < 6 | < 6 | < 6
2 | CCNC(=O)Nc1ccc(-c2nc(N3CCOC[C@@H]3C)c3c(n2)C(C)(C)S(=O)(=O)C3)cc1 [CZ415] | < 6 | < 6 | < 6 | < 6 | < 6 | < 6 | < 6 | < 6 | < 6 | < 6 | < 6 | < 6 | < 6 | < 6 | < 6 | < 6 | < 6 | < 6 | < 6 | < 6 | – | < 6 | < 6 | < 6 | < 6 | < 6 | < 6 | < 6 | < 6 | < 6 | < 6 | < 6 | < 6 | < 6 | < 6
